The source of these data is US20240335432A1, “THERAPEUTIC COMPOUND FOR NEURONAL CEROID LIPOFUSCINOSIS” (JCR PHARMACEUTICALS CO., LTD., priority 2021, published 2024).

One assay relates to CLN2 cells. Briefly: Observation of autofluorescent material (lipofuscin) in CLN2 patient-derived cells by fluorescence microscopy. The class given is cell-based, human. The settings on record: CLN2 cells of 7 donors, 0.1, 1, 10 μM soraprazan, particularly at 10 μM, 10 days; FIGS. 1-8. As to the method:
(§1) Ceroid lipofuscinosis type 2 patient-derived fibroblasts (CLN2 cells, 7 donors: GM09668, GM09669, GM09404, GM10570, GM10672, GM16485, GM16486, Coriell Institute) and normal human dermal fibroblasts (NHDF cells, Cat.No.C-12300, PromoCell GmbH) were cultured in MEM (10370088, Gibco) containing 15% FBS (HyClone) and 1×GlutaMAX™ I (Gibco) (hereafter referred to as MEM). Each cell was diluted to 0.5×10^5 cells/mL with MEM and 15 mL of each cell suspension was seeded in T75 flask (3123-075, IWAKI Inc.). Cells were cultured under 37° C., 5% CO2 conditions.
(§2) Soraprazan (Symeres) was dissolved in Dimethyl sulfoxide (DMSO) to prepare soraprazan stock solution with concentrations of 1, 10, and 100 mM. Each soraprazan stock solution was diluted 1/100 concentration with MEM to prepare media with final concentrations of 0.1, 1, and 10 μM of soraprazan (0.0367, 0.367, and 3.67 μg/mL, respectively). In addition, DMSO was diluted to 1/100 concentration with MEM, which was used as a negative control (0 μM soraprazan). Hereinafter the prepared media herein were referred to as soraprazan-containing media collectively.
Each of the CLN2 cells and the NHDF cells cultured in Example 2-1 was washed twice with Dulbecco's Phosphate-Buffered Saline (DPBS, Gibco) and detached from the flask using 1 mL of 0.25% Trypsin-EDTA (Gibco). […]

Assay [1] deals with CLN2 cells (GM09668, GM09669, GM10570). Briefly: Quantification of autofluorescence as % Fluorescent Area by image analysis (HALO). The class given is cell-based, human. The conditions noted are these: for % Fluorescent Area: 10 days culture. As to the method:
as §1, §2
Each of the CLN2 cells and the NHDF cells cultured in Example 2-1 was washed twice with Dulbecco's Phosphate-Buffered Saline (DPBS, Gibco) and detached from the flask using 1 mL of 0.25% Trypsin-EDTA (Gibco). After 10 mL of MEM was added, each cell was collected in a 15 mL tube and centrifuged at room temperature at 1000 rpm for 5 minutes, and the supernatant was removed. Then, each cell was suspended at cell density of 2×10^5 cells/mL in one of soraprazan-containing media (0, 0.1, 1, and 10 μM). Then the cell suspension was dispensed in 96-well plates (655956, Gliner) with 0.4×10^5 cells per well (200 μL per well). Cells were cultured at 37° C., in the presence of 5% CO2 for 10 days. During the culture, the medium in each well was exchanged to new corresponding soraprazan-containing medium at 3, 6, and 9 days after seeding.
The observation of autofluorescence was performed after changing the medium to FluoroBrite DMEM (A1896701, Gibco) under GFP detection conditions (BZX filter GFP, excitation wavelength:470/40 nm, absorption wavelength:525/50 nm, dichroic mirror: 495 nm).
To quantify the fluorescence intensity of autofluorescence, the same tests as in Examples 2-1 to 2-4 were performed on 3 types of CLN2 cells (GM09668, GM09669, GM10570) using soraprazan-containing medium, which contained 0, 1, and 10 μM of soraprazan, respectively. It was confirmed again that the fluorescent intensity was reduced in cells cultured in soraprazan-containing medium particularly at a concentration of 10 μM. Then, the ratio of the area where fluorescent was detected in the image (fluorescent area) to the total area of the image occupied by the cells (% Fluorescent Area) was calculated using the image analysis software HALO® (v3.2.1851.354, Indica Labs). As the analysis algorithms, Indica Labs-Area Quantification FL v2 1.6 was used. Herein the area where fluorescent was detected, irrespective of the fluorescent intensity, was defined as fluorescent area, which corresponds the area where a certain amount of lipofuscin existed.

Assay [2] deals with PPT1 knockout (KO) HEK293T cells or PPT1 KO CHO cells. The assay can be described thus: Lipofuscin fluorescence emission measurement in pathological model cells. In kind it is cell-based. The conditions noted are these: final soraprazan concentrations 100 μM-10 nM, versus 100% DMSO added. As to the method:
Using mammalian cells in which a causative gene of neuronal ceroid lipofuscinosis has been knocked out as pathological model cells, a test can be performed in which an effect of removing lipofuscin accumulated in the cells by soraprazan is evaluated. For example, using PPT1 knockout (KO) HEK293T cells or PPT1 KO CHO cells, which are pathological model cells of neuronal ceroid lipofuscinosis type 1 (CLN1), a test can be performed in which an effect of removing lipofuscin accumulated in the cells by soraprazan is evaluated. Acquisition of a PPT1 KO cell line can be achieved using a conventionally known method.
Soraprazan is dissolved in dimethyl sulfoxide (DMSO) to a concentration of 10 mM. […]
Relative amounts of lipofuscin accumulated in cells can be measured by observing green autofluorescence emitted from the cells using a fluorescence microscope as described below. […] Then, under a fluorescence microscope, for example, excitation light with wavelength of 485 nm is irradiated to the cells and strength of emitted light from the cells with wavelength of 521 nm is measured. As a fluorescence microscope, for example, EVOS FLoid Imaging System (Thermo Fisher Scientific) can be used, and in this case, wavelengths of excitation light and observation light can be respectively set to 482 nm and 532 nm. […]

The subject of another assay is TPP1 knockout (KO) mice. The assay can be described thus: Administration test using pathological model animals, fluorescence intensities of tissues. The conditions noted are these: oral or intravenous soraprazan versus negative control group. In kind it is in vivo, mouse. As to the method: A test can be performed in which an effect of soraprazan on removing lipofuscin accumulated in animal tissues by soraprazan is evaluated using mammals in which a causative gene of neuronal ceroid lipofuscinosis has been knocked out as pathological model animals. For example, a test can be performed in which an effect of soraprazan on removing lipofuscin accumulated in mouse tissues by soraprazan is evaluated using TPP1 knockout (KO) mice, which are neuronal ceroid lipofuscinosis type 2 (CLN2) pathological model cells. Generation of the TPP1 KO mice can be performed using a conventionally known method. […]
After a certain time period, for example 0.25, 0.5, 1, 2, 4, 6, 8, or 24 hours after the last administration of a chronic treatment between one week and 12 months, all TPP1 KO mice are anesthetized with isoflurane and perfused with saline from the left ventricle for 4-5 minutes for blood removal. After that, tissues (brain, heart, lungs, liver, spleen, kidneys, quadriceps, thymus, thoracic vertebrae, femur) and peripheral blood, of which fluorescence intensities are to be measured, are collected, and are stored in physiological saline to prevent drying. Fluorescence intensity measurement of lipofuscin is performed using an appropriate fluorescence intensity measuring instrument. […]

Take `COCCO[C@@H]1c2ccn3c(C)c(C)nc3c2N[C@H](c2ccccc2)[C@H]1O` [Soraprazan, soraprazan]: the “fluorescent intensity (autofluorescence, lipofuscin accumulation)” value in the assay on CLN2 cells was “markedly reduced”. Moreover, the “fluorescent intensity (autofluorescence)” value in assay [1] (3 types of CLN2 cells, 1 and 10 μM soraprazan, particularly at 10 μM, FIGS. 9-11) is reported as “reduced”. The “% Fluorescent Area” value in assay [1] (GM09668 cells, 1 μM soraprazan) amounted to 0.944%; in assay [1] (GM09668 cells, 10 μM soraprazan), 2.07%; in assay [1] (GM09669 cells, 1 μM soraprazan), 10.9%; in assay [1] (GM09669 cells, 10 μM soraprazan) it was 2.34%; in assay [1] (GM10570 cells, 1 μM soraprazan), 12.3%; in assay [1] (GM10570 cells, 10 μM soraprazan), 0.766%. The “amount of lipofuscin accumulated in the cells (fluorescence intensity)” value in assay [2] was “decreases according to the concentration of soraprazan”. The “amount of lipofuscin accumulated in each of the tissues (fluorescence intensity)” value in the assay on TPP1 knockout (KO) mice is given as “reduces the amount of lipofuscin”.
